From patent publication US20100221736A1, “METHOD FOR PREDICTING SUSCEPTIBILITY TO A MENTAL DISORDER” (priority 2007, published 2010)

Assays:
Assay type in all cases: cell-based, human
GCLC = GCLC protein expression by Western Blot in skin fibroblasts after t-BHQ treatment; conditions: for increase of GCLC protein expression by t-BHQ treatment (factor): t-BHQ vs baseline
Protocol: (§1) Human fibroblast cultures were established from skin biopsies as described in Tosic et al.[8] Cells were grown with DMEM medium (0.5 l medium completed with 10 ml Ultroser-G serum, 5 ml Penicillin/Streptomycin, 5 ml sodium pyruvate (100 mM)) at 37° C. in a humidified atmosphere containing 5% CO2/95% air. Human fibroblasts near confluence after five passages were treated for 18 h with 50 μM t-BHQ in 0.05% DMSO (t-BHQ condition) or 0.05% DMSO alone (baseline condition). Cell lysis was performed on ice. Cells were washed with PBS and scraped with lysis buffer (2.37 ml scraping buffer (Tris-HCl 50 mM, pH 7.2; NaCl 150 mM; NaF 10 mM; EDTA 2 mM; EGTA 2 mM; Triton X100 1%); 100 μl Complete (1 tablet/2 ml H2O); 25 μl PMSF 100 mM; 2.5 μl DTT 1 mM). Lysates were homogenized 10 times with a 25-gauge needle, and cellular debris were cleared by centrifugation (20,000 g, 14 min, 4° C.). Protein concentration was determined by BCA protein assay. Equal amounts of protein (50 μg) were dissolved in 5× Laemmli sample buffer, separated by 12% SDS-PAGE, and electro-transferred to a PVDF membrane. Membranes were blocked (BSA 1%/milk powder 3%) overnight at 4° C. Following incubation with primary and secondary antibodies, protein was visualized by using the ECL detection system and protein abundance was quantified by densitometry analysis (Multi Genius, Bio Imaging System, Syngene). A fibroblast protein pool from 5 different individuals was used as an external control in all experiments. The results were normalized to a -Tubulin, and reported relative to the specific protein levels measured in the protein pool.

[1] = test system: glutamate cysteine ligase (GCL); test: GCL activity in cultured skin fibroblasts after t-BHQ treatment; conditions: for increase of GCL activity after t-BHQ treatment (factor): t-BHQ vs baseline
Protocol: (§2) Human fibroblast cultures were established from skin biopsies as described in Tosic et al.[8] Cells were grown with DMEM medium (0.5 l medium completed with 10 ml Ultroser-G serum, 5 ml Penicillin/Streptomycin, 5 ml sodium pyruvate (100 mM)) at 37° C. in a humidified atmosphere containing 5% CO2/95% air. Human fibroblasts near confluence after five passages were treated for 18 h with 50 μM t-BHQ in 0.05% DMSO (t-BHQ condition) or 0.05% DMSO alone (baseline condition). Cells were washed once with phosphate-buffer saline (PBS), trypsinized and pelleted. The pellet was washed once, taken up into PBS and frozen. GSH content and GCL activity was determined in protein extracts from fibroblasts cultures, with a fluorescence-based microtiter plate assay according to White and colleagues [White et al, 2003]. GCL activity was determined as the difference between GSH synthesis in unblocked and GSH synthesis in BSO treated wells per min and per mg protein. Protein concentration has been determined by BCA protein assay. In addition, GSH contents under untreated conditions were also routinely measured in all participants that had spent skin fibroblasts (33 controls and 39 patients) by a colorimetric GSH assay kit (Calbiochem, San Diego, USA).

skin fibroblasts = test: GSH content in cultured skin fibroblasts after t-BHQ treatment; conditions: for GSH content: t-BHQ treated (50 μM, 18 h)
Protocol: as §2

GCLM = GCLM protein expression by Western Blot in skin fibroblasts after t-BHQ treatment; conditions: for increase of GCLM protein expression induced by t-BHQ treatment: t-BHQ vs baseline; for GCLM protein expression: t-BHQ treated (50 μM, 18 h)
Protocol: as §1

[2] = t-BHQ treatment, subjects with GCLC GAG TNR genotypes 7/7 & 7/9
[3] = t-BHQ treatment, subjects with genotypes 7/8, 8/8, 8/9 & 9/9
[4] = fibroblasts of control subjects
[5] = fibroblasts of schizophrenia patients

With `CC(C)(C)c1cc(O)ccc1O` [t-BHQ, tert-butylhydroquinone] the “increase of GCLC protein expression by t-BHQ treatment (factor)” value (GCLC; controls) was 1.44, the “increase of GCLC protein expression by t-BHQ treatment (factor)” value (GCLC; patients) was 1.32 and the GCLC protein expression (GCLC; t-BHQ treated (50 μM, 18 h), fibroblasts of control subjects) was 64.1 ± 17.5 α-Tubulin corrected arbitrary units. The GCLC protein expression (GCLC; t-BHQ treated (50 μM, 18 h), fibroblasts of schizophrenia patients) was 45.4 ± 15.8 α-Tubulin corrected arbitrary units, the GCLC protein expression (GCLC; [2]) was 58.9±19.0 and the GCLC protein expression (GCLC; [3]) was 45.6±13.3. The “increase of GCL activity after t-BHQ treatment (factor)” value ([1]; controls) was 3.45, the “increase of GCL activity after t-BHQ treatment (factor)” value ([1]; patients) was 2.95 and the GCL activity ([1]; t-BHQ treated (50 μM, 18 h), fibroblasts of control subjects, average and standard deviation) was 0.847 ± 0.26 nmol GSH/min/mg protein. It also gave a GCL activity ([1]; t-BHQ treated (50 μM, 18 h), fibroblasts of schizophrenia patients, average and standard deviation) of 0.627 ± 0.16 nmol GSH/min/mg protein, a GCL activity [1, 2] of 0.784±0.246 and a GCL activity [1, 3] of 0.584±0.141. For the same molecule, the GSH content (skin fibroblasts; [4]) was 144.9 ± 21.5 nmol GSH/mg protein, the GSH content (skin fibroblasts; [5]) was 136.3 ± 19.1 nmol GSH/mg protein and the “increase of GSH content after t-BHQ treatment (factor)” value (skin fibroblasts; very similar in patients and controls, t-BHQ vs baseline) was 2.53. For the same molecule, the “increase of GCLM protein expression induced by t-BHQ treatment” value (GCLM; control subjects) was 73%, the “increase of GCLM protein expression induced by t-BHQ treatment” value (GCLM; patients) was 74% and the GCLM protein expression (GCLM; [4]) was 108.0 ± 24.0 α-Tubulin corrected arbitrary units. For the same molecule, the GCLM protein expression (GCLM; [5]) was 107.6 ± 24.1 α-Tubulin corrected arbitrary units.
